The record followed here is paper doi:10.1101/2025.07.05.663305v1, “Structure of Photosystem I with SOD reveals coupling between energy conversion and oxidative stress protection” (biorxiv, 2025).

In this experiment the target is T1, FCPb (Chromera velia, UniProt A0A0G4ID45).
T1 construct: gene Cvel_13255; native PSI-SOD-FCPI supercomplex purified from cells; contacts PsaD, PsaL, PsaA2 and SOD1
T1 sequence (A0A0G4ID45 1-293): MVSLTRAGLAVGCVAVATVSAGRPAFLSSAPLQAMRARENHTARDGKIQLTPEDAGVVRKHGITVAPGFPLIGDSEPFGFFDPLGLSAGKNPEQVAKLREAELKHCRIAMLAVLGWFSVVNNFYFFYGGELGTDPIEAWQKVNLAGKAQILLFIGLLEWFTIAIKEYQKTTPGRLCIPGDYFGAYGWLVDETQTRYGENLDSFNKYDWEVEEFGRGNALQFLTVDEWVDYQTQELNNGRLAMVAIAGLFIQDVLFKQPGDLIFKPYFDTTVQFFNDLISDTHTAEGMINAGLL
As to the kind of experiment: cryo-EM structure. Type of experiment: binding. To be noted: four sites 301, 302, 303, 305.

In the case of `CC(/C=C/C=C(C)/C=C/[C@@]12O[C@]1(C)C[C@@H](O)CC2(C)C)=C\C=C\C=C(C)\C=C\C=C(C)\C=C\[C@@]12O[C@]1(C)C[C@@H](O)CC2(C)C` [violaxanthin], the cryo-EM structure result was “FCPb binds ten Chls a and four violaxanthins”.
